The source of these data is US6624317B1, “Taxoid conjugates as antimitotic and antitumor agents” (priority 2000, dated 2003).

The structures appear in SMILES notation. Where two headings read alike, the source gives them in different places.

The test system of data set [1] is epiderimoid carcinoma of the nasopharynx (KB). The data set can be described thus: in vitro cytotoxicity assay, KB. It is filed as cell-based, human. Conditions: drug exposure 3 days. As to the method: (§1) Biological Assay. The in vitro cytotoxicity assay was carried out according to procedures described in Rubinstein et al. (P. Ferguson et al., Cancer Res. 1988, 48, 5956-5964). […] The human tumor cell line panel consisted of epiderimoid carcinoma of the nasopharynx (KB), lung carcinoma (A-549), ileocecal carcinoma (HCT-8), renal cancer (CAKI-1), breast cancer (MCF-7), melanoma cancer (SKMEL-2), and ovarian cancer (1A9). The drug resistant cell line panel consisted of three KB-derivatives, -7d, -CPT, and -VCR. The properties of these cells are described elsewhere (P. Ferguson et al., Cancer Res. 1988, 48, 5956-5964; D. Beidler et al., Cancer Res. 1996, 56, 345-353). […] They were a generous gift of Dr. P. Giannakakou (P. Giannakakou et al., J. Biol. Chem. 1997, 27, 17118-17125). Cells were cultured at 37° C. in RPMI-1640 with 100 ug/mL kanamycin and 10% (v/v) fetal bovine serum in a humidified atmosphere containing 5% CO2. Initial seeding densities varied among the cell lines to ensure a final absorbance of 1-2.5 A562 units. Drug exposure was for 3 days, and the ED50 value, the drug concentration that reduced the absorbance by 50%, was interpolated from dose-response data.

For the next data set, the system named is ovarian cancer (1A9). The experiment in a line: in vitro cytotoxicity assay, 1A9. The settings on record: read-out: Cytotoxicity (ED50) 1A9 (OVCAR). As to the method: as §1
The next data set has as its system PAX-10. The data set can be described thus: cytotoxicity in paclitaxel-resistant 1A9 sub-line PAX-10. It is filed as cell-based, human. The settings on record: PAX-10 paclitaxel-resistant 1A9 sub-line. As to the method:
as §1
(§2) The newly synthesized taxoid-4′-O-demethyl epipodophyllotoxin conjugates were evaluated in house using standard cytotoxicity assays in human tumor (HTCL) and drug-resistant (DRCL) cell lines. Reference compounds were paclitaxel (1), cephalomannine (2), and epipodophyllotoxins [etoposide (5) and GL-331 (7), see FIG. 1]. The HTCL panel was comprised of KB, A549, HCT-8, CAKI-1, MCF-7, SK-MEL-2, and 1A9 cell lines. Two paclitaxel-resistant 1A9 sub-lines designated as PAX-10 and PAX-22 were also tested as part of the DRCL panel. Other resistant-cell lines were KB derivatives expressing various mechanisms or multi-drug resistance as described elsewhere (P. Ferguson et al., Cancer Res. 1988, 48, 5956-5964; D. Beidler et al., Cancer Res. 1996, 56, 345-353).

Data set [2] deals with ileocecal carcinoma (HCT-8). The experiment in a line: in vitro cytotoxicity assay, HCT-8. The settings on record: read-out: Cytotoxicity (ED50) HCT-8. Here is the method:
as §1

For a further data set, the system named is renal cancer (CAKI-1). The data set can be described thus: in vitro cytotoxicity assay, CAKI-1. The settings on record: read-out: Cytotoxicity (ED50) CAKI-1. As to the method:
as §1

Data set [3] has as its system melanoma cancer (SKMEL-2). The data set can be described thus: in vitro cytotoxicity assay, SK-MEL-2. Conditions: read-out: Cytotoxicity (ED50) SK-MEL-2. Here is the method: as §1
A further data set has as its system breast cancer (MCF-7). The experiment in a line: in vitro cytotoxicity assay, MCF-7. The settings on record: read-out: Cytotoxicity (ED50) MCF-7. Here is the method: as §1
A further data set has as its system lung carcinoma (A-549). The data set can be described thus: in vitro cytotoxicity assay, A549. Conditions: read-out: Cytotoxicity (ED50) A549. Here is the method: as §1
The subject of data set [4] is paclitaxel resistant cells. The data set can be described thus: cytotoxicity against paclitaxel resistant cells (overall). Format: cell-based, human. The settings on record: compared with the unconjugated components, Table 3. Here is the method: as §1, §2
In another data set the test system is KB-CPT. The data set can be described thus: cytotoxicity in drug resistant cell line KB-CPT. It is filed as cell-based, human. Conditions: KB-CPT drug resistant KB derivative. Here is the method: as §1, §2
For the next data set, the system named is PAX-22. The data set can be described thus: cytotoxicity in paclitaxel-resistant 1A9 sub-line PAX-22. Format: cell-based, human. The settings on record: PAX-22 paclitaxel-resistant 1A9 sub-line. As to the method:
as §1, §2

Another data set relates to KB-VCR. The data set can be described thus: cytotoxicity in drug resistant cell line KB-VCR. Format: cell-based, human. Conditions: KB-VCR drug resistant KB derivative. Here is the method:
as §1, §2

Another data set relates to KB-7d. The data set can be described thus: cytotoxicity in drug resistant cell line KB-7d. It is filed as cell-based, human. The settings on record: KB-7d drug resistant KB derivative. As to the method: as §1, §2
A further data set has as its system Topoisomerase II. The data set can be described thus: Topoisomerase II activity assay (inhibition of topo II in vitro). Conditions: NA^1 not active at 50 uM, NA^2 not active at 100 uM. Format: biochemical. The text has this:
(§3) Protein-Linked DNA Break and Topoisomerase 11 Activity Assays. The procedures were done according to detailed published methods (K. Bastow et al., Bioorg. Med. Chem. 1997, 5, 1481-1488).

Data set [5] relates to Cellular protein-DNA complex formation. The data set can be described thus: Protein-linked DNA break assay (cellular protein-DNA complex formation). Format: cell-based. Conditions: Etoposide given as 100; NA^1 not active at 50 uM, NA^2 not active at 100 uM.
From the text: as §3

Data set [6] relates to protein-linked DNA breaks (PLDB). The settings on record: drug treated cells; earlier work; cited from earlier work.
Data set [7] deals with human KB and DU-145 tumor cells in nude mice. The settings on record: earlier work; cited from earlier work.
Where [8] appears, read: 1A9 (OVCAR), drug exposure 3 days.
Where [9] appears, read: HCT-8, drug exposure 3 days, NA = not active.
[10] abbreviates: SK-MEL-2, drug exposure 3 days, NA = not active.
[11] abbreviates: A549, drug exposure 3 days, NA = not active.

Take `C/C=C(\C)C(=O)N[C@@H](c1ccccc1)[C@@H](OC(=O)c1ccc(C=Nc2ccc(N[C@@H]3c4cc5c(cc4[C@@H](c4cc(OC)c(O)c(OC)c4)[C@H]4C(=O)OC[C@@H]43)OCO5)cc2)cc1)C(=O)O[C@H]1C[C@@]2(O)[C@@H](OC(=O)c3ccccc3)[C@@H]3[C@]4(OC(C)=O)CO[C@@H]4C[C@H](O)[C@@]3(C)C(=O)[C@H](OC(C)=O)C(=C1C)C2(C)C` [Compound 16]: the “Cytotoxicity (ED50) KB” value in [1] is 1400 nM. Moreover, the EC50 in the data set with ovarian cancer (1A9) (setting [8]) was 1120 nM; in [2] (setting [9]), more than 40000 nM; in the data set with renal cancer (CAKI-1) (CAKI-1, drug exposure 3 days), more than 10000 nM; in [3] (setting [10]), more than 40000 nM; with breast cancer (MCF-7) (MCF-7, drug exposure 3 days), more than 5000 nM; in the data set with lung carcinoma (A-549) (setting [11]) it was 3550 nM. Further, the “Resistance Fold PAX-10” value in the data set on PAX-10 turned out to be 7.5. The “activity against paclitaxel resistant cells (in words)” value in [4] is “enhanced activity against paclitaxel resistant cells”.

As for `C/C=C(\C)C(=O)N[C@@H](c1ccccc1)[C@@H](OC(=O)c1ccc(C=N[C@@H]2c3cc4c(cc3[C@@H](c3cc(OC)c(O)c(OC)c3)[C@H]3C(=O)OC[C@@H]32)OCO4)cc1)C(=O)O[C@H]1C[C@@]2(O)[C@@H](OC(=O)c3ccccc3)[C@@H]3[C@]4(OC(C)=O)CO[C@@H]4C[C@H](O)[C@@]3(C)C(=O)[C@H](OC(C)=O)C(=C1C)C2(C)C` [Compound 14], the “Cytotoxicity (ED50) KB” value in data set [1] came to 30 nM. The EC50 in the data set on ovarian cancer (1A9) (setting [8]) is 140 nM; in data set [2] (setting [9]), 2780 nM; in the data set on renal cancer (CAKI-1) (CAKI-1, drug exposure 3 days), more than 5000 nM; in data set [3] (setting [10]), 8900 nM; in the data set with breast cancer (MCF-7) (MCF-7, drug exposure 3 days), 1230 nM; in the data set with lung carcinoma (A-549) (setting [11]), 700 nM. Besides, the “Resistance Fold PAX-10” value in the data set on PAX-10 is listed as more than 36.

`CC(=O)O[C@H]1C(=O)[C@@]2(C)[C@H]([C@H](OC(=O)c3ccccc3)[C@]3(O)C[C@H](OC(=O)[C@H](O)[C@@H](NC(=O)c4ccccc4)c4ccccc4)C(C)=C1C3(C)C)[C@]1(OC(C)=O)CO[C@@H]1C[C@@H]2O` [Paclitaxel, paclitaxel, reference compound]: in [1], the “Cytotoxicity (ED50) KB” value was 16 nM. Besides, in the data set on KB-CPT, the “Resistance Fold KB-CPT” value was determined as 1. The EC50 in the data set on ovarian cancer (1A9) (Homo sapiens, 72 h) worked out at 2 nM; in data set [2] (Homo sapiens, HCT-8, 72 h) it was 13 nM; with lung carcinoma (A-549) (Homo sapiens, A549, 72 h) it was 6 nM. Moreover, the “Resistance Fold PAX-10” value in the data set on PAX-10 is 24. Moreover, the “Resistance Fold PAX-22” value with PAX-22 amounted to 24. The “Resistance Fold KB-VCR” value in the data set on KB-VCR is 15. For the same compound, the “Resistance Fold KB-7d” value with KB-7d came to 1.

Consider `COc1cc([C@@H]2c3cc4c(cc3[C@@H](O[C@@H]3O[C@@H]5CO[C@@H](C)O[C@H]5[C@H](O)[C@H]3O)[C@H]3COC(=O)[C@H]23)OCO4)cc(OC)c1O` [Etoposide, etoposide, reference compound], for which, in data set [1], the “Cytotoxicity (ED50) KB” value was determined as 200 nM. Also, the “Resistance Fold KB-CPT” value in the data set with KB-CPT was found to be 1. Besides, the EC50 in the data set with ovarian cancer (1A9) (Homo sapiens, 72 h) is 600 nM; in data set [2] (Homo sapiens, HCT-8, 72 h) it was more than 5000 nM; in the data set on renal cancer (CAKI-1) (Homo sapiens, CAKI-1, 72 h), 2200 nM; with breast cancer (MCF-7) (Homo sapiens, MCF7, 72 h), more than 5000 nM; with lung carcinoma (A-549) (Homo sapiens, A549, 72 h), 1950 nM. The “Inhibition of Topo II IC100” value in the data set with Topoisomerase II is 100 µM. Also, the “Resistance Fold PAX-10” value with PAX-10 is on record as more than 16. Besides, in the data set with PAX-22, the “Resistance Fold PAX-22” value was more than 16. Moreover, the “Resistance Fold KB-VCR” value with KB-VCR is 153. In addition, the “Resistance Fold KB-7d” value in the data set with KB-7d is listed as 119. In addition, the “Cellular protein-DNA complex formation” value in data set [5] is on record as 100%.

Turning to `CC[C@@]1(O)C(=O)OCc2c1cc1n(c2=O)Cc2c-1nc1ccccc1c2C=Nc1ccccc1N[C@@H]1c2cc3c(cc2[C@@H](c2cc(OC)c(O)c(OC)c2)[C@H]2C(=O)OC[C@@H]21)OCO3` [Compound 4], the “induction of protein-linked DNA breaks (PLDB) (in words)” value in data set [6] was “induced protein-linked DNA breaks (PLDB) in a concentration dependent manner”.

`C/C=C(\C)C(=O)N[C@@H](c1ccccc1)[C@@H](O)C(=O)O[C@H]1C[C@@]2(O)[C@@H](OC(=O)c3ccccc3)[C@@H]3[C@]4(OC(C)=O)CO[C@@H]4C[C@H](O)[C@@]3(C)C(=O)[C@H](OC(C)=O)C(=C1C)C2(C)C` [Cephalomannine, cephalomannine, reference compound]: the “Cytotoxicity (ED50) KB” value in data set [1] amounted to 2 nM. Further, the EC50 is 3 nM in the data set with ovarian cancer (1A9) (Homo sapiens, 72 h); 47 nM in data set [2] (Homo sapiens, HCT-8, 72 h); more than 300 nM in the data set on renal cancer (CAKI-1) (Homo sapiens, CAKI-1, 72 h); 134 nM in [3] (Homo sapiens, SK-MEL-2, 72 h); 167 nM in the data set with breast cancer (MCF-7) (Homo sapiens, MCF7, 72 h); 9 nM in the data set with lung carcinoma (A-549) (Homo sapiens, A549, 72 h). Besides, the “Resistance Fold PAX-10” value with PAX-10 is given as 40.

With `CC[C@@]1(O)C(=O)OCc2c1cc1n(c2=O)Cc2c-1nc1ccccc1c2C=Nc1ccc(N[C@@H]2c3cc4c(cc3[C@@H](c3cc(OC)c(O)c(OC)c3)[C@H]3C(=O)OC[C@@H]32)OCO4)cc1` [Compound 3], in data set [6], the “induction of protein-linked DNA breaks (PLDB) (in words)” value is reported as “induced protein-linked DNA breaks (PLDB) in a concentration dependent manner”. Further, in data set [7], the “in vivo antitumor activity (in words)” value was “more active than either etoposide or CPT”.

As for `COc1cc([C@@H]2c3cc4c(cc3[C@@H](Nc3ccc([N+](=O)[O-])cc3)[C@H]3COC(=O)[C@H]23)OCO4)cc(OC)c1O` [GL-331, reference compound], the “Cytotoxicity (ED50) KB” value in [1] stood at 1860 nM. Moreover, the “Resistance Fold KB-CPT” value with KB-CPT stood at 1. Also, the EC50 in the data set with ovarian cancer (1A9) (setting [8]) is 200 nM; in [2] (setting [9]) it was 3380 nM; in the data set with renal cancer (CAKI-1) (CAKI-1, drug exposure 3 days) it was 1800 nM; in data set [3] (setting [10]) it was 5950 nM; in the data set on breast cancer (MCF-7) (MCF-7, drug exposure 3 days) it was 9290 nM; with lung carcinoma (A-549) (setting [11]) it was 480 nM. For the same compound, the “Inhibition of Topo II IC100” value in the data set with Topoisomerase II stood at 50 µM. In addition, the “Resistance Fold PAX-10” value with PAX-10 is given as 13. The “Resistance Fold PAX-22” value with PAX-22 is given as 8. For the same compound, the “Resistance Fold KB-VCR” value in the data set on KB-VCR came to 3. Moreover, the “Resistance Fold KB-7d” value in the data set with KB-7d is 2. Moreover, in data set [5], the “Cellular protein-DNA complex formation” value was 134 +/− 7%.
